The results in this text go back to patent US20240207421A1, “NERVE TARGETING PEPTIDES AND METHODS OF USE” (ALUME BIOSCIENCES, INC., priority 2020, published 2024).

Assay [1] relates to excised human nerve tissue (or nerve extracts). Nature of the assay: Phage display library screening (Example 2), NEB tissue-binding peptides: nerve tissue and nerve extracts versus muscle. The following applies: unique sequence count, peptides not binding muscle extracts; for Count Excised Nerve: tissue target: excised nerve; for Count Nerve Extract: tissue target: nerve extract; for Count Neuron: tissue target: neuron. As to the method:
(§1) Phage display library screens were used to identify peptides that bind to target proteins (including specific laminin trimers) that are expressed in human nerves, as described in Table 3. These screens were also carried out to identify peptides that could bind selectively to nerves versus muscle. Such peptides could therefore be useful for systemic in-vivo labeling of nerves during fluorescence assisted surgery. Specifically, m 13 phage libraries expressing 7 or 12 random amino acid peptides, or a cyclic peptide CX7C, on the N-terminus of the minor coat protein pIII (New England Biolabs; NEB) were processed through multiple rounds of selection for binding to target proteins expressed in nerves, or to excised human nerves, nerve extracts, or muscle, as described further below.
To identify peptides selective for nerves versus muscle, phage from the same libraries used for specific target proteins were used to screen against excised human nerve tissue (or nerve extracts) and human muscle tissue.
Excised Nerve Tissue: Phage were processed through multiple cycles of selection, with representative phage being isolated and sequenced after each selection cycle. Specifically, for selection using human nerve tissue, a sample of […] tissue (2 mm by 2 mm) was washed prior to mixing and incubation with a phage library. After incubation, the mixture (containing mostly intact nerves with phage particles that had variable affinity for nerves) was centrifuged and the nerve pellet washed multiple times with PBS to remove phage with little or no affinity for nerve tissue. The pellet was homogenized and plated for titering and reamplification. Phage that were bound at each round were sequenced. NextGen sequencing of pools after 2, 3 and 4 rounds of selection were used to isolate candidate sequences that were further analyzed using bioinformatics.
Nerve Extracts: Phage libraries were incubated for up to 24 hours at 4° C. in 96 well plates that had been coated with a human nerve extract. Plates were then washed with PBS and phage were eluted using 0.2M glycine pH 2.0. Phage supernatants where then neutralized with Tris pH 9.0 prior to plating on TG1 bacteria and LB agar plates. Colonies were counted to determine titer followed by DNA preparation of pools of phage and NextGen sequencing. After rounds of selection, phage were pooled and amplified for iterative selection. Phage that eluted by 0.2M glycine pH 2.0 (the nerve binders) at each round were sequenced. NextGen sequencing of pools after 2, 3 and 4 rounds of selection were used to isolate candidate sequences that were further analyzed using bioinformatics.
Muscle Tissue: Phage were processed through multiple cycles of selection, with representative phage being isolated and sequenced after each selection cycle. Specifically, for selection using human skeletal muscle tissue, a sample of skeletal muscle tissue (2 mm by 2 mm) was washed prior to mixing and incubation with a phage library. After incubation, the mixture (containing mostly intact muscle with phage particles that had variable affinity for muscle) was centrifuged and the muscle pellet washed multiple times with PBS to remove phage with little or no affinity for muscle tissue. The pellet was then homogenized and plated for titering and reamplification. Phage that were bound at each round were sequenced. NextGen sequencing of pools after 2, 3 and 4 rounds of selection were used to isolate candidate sequences that were further analyzed using bioinformatics.
For all NEB sequence datasets, a python script was used to translate, trim, and filter the peptide sequences (see details above). A python script was used to group peptides from different assays according to tissue target (muscle, nerve, neuron, or nerve extract) and combine the unique sequence counts for each peptide. […]

The test system of assay [2] is Laminin 421/521. Nature of the assay: Phage display library screening (Example 2), NEB laminin-binding peptides. The following applies: Laminin 421/521, not 211 and 411; combined unique sequence count, Python/R script analysis. Set-up: species or system human. As to the method:
as §1
For screening against the specified target proteins in Table 1, including LN211, LN411, LN421, and LN521, the phage library was processed by up to 4 binding and wash cycles. For selection, phage libraries were incubated for up to 24 hours at 4° C. in 96 well plates that had been coated with one of the target proteins. Plates were then washed with PBS and phage were eluted using 0.2M glycine pH 2.0. Phage supernatants where then neutralized with Tris pH 9.0 prior to plating on TGI bacteria and LB agar plates. Colonies were counted to determine titer followed by DNA preparation of pools of phage and NextGen sequencing. After rounds of selection, phage were pooled and amplified for iterative selection. Phage that were bound at each round were sequenced. NextGen sequencing of pools after 2, 3 and 4 rounds of selection was used to isolate candidate sequences that were analyzed further to identify those that specifically bound each unique target protein.
For all NEB sequence datasets, a python script was used to translate, trim, and filter the peptide sequences (see details above). A python script was used to group peptides from different assays according to laminin complex binding (laminin complex 211, 411, 421, or 521) and combine the unique sequence counts for each peptide. An R script was written to merge the peptide sequences from different data files and determine peptides that specifically bind one laminin complex and not the others, or that bind both laminin 421 and 521 but not 211 and 411.

For the substance GHAHSLTQNPLF, in assay [1], the “Count Excised Nerve” value is 10, the “Count Nerve Extract” value came to 18 and the “Count Neuron” value was 8. The like results for YAGQNGWMRSDL were, in that order, 28, 45 and 17.

Turning to WDVAWLERRALH, in assay [1], the “Count Excised Nerve” value was 23, the “Count Nerve Extract” value is 43 and the “Count Neuron” value is on record as 20. Regarding TEWMVRASSIGE, in assay [1], the “Count Excised Nerve” value was 6, the “Count Nerve Extract” value came to 14 and the “Count Neuron” value stood at 8. In the case of VRSDMVSGGLQK, in assay [1], the “Count Excised Nerve” value is 14, the “Count Nerve Extract” value came to 20 and the “Count Neuron” value stood at 6. Regarding ALNHNGPVKTGL, in assay [1], the “Count Excised Nerve” value is 10, the “Count Nerve Extract” value is reported as 16 and the “Count Neuron” value is 6. As for NRIGHGTATGTL, in assay [1], the “Count Excised Nerve” value was 22, the “Count Nerve Extract” value was found to be 28 and the “Count Neuron” value turned out to be 6. Turning to NAVHRPDLNLLA, in assay [1], the “Count Excised Nerve” value came to 15, the “Count Nerve Extract” value is listed as 22 and the “Count Neuron” value is reported as 7. For the substance DELVGGAPWYKS, in assay [1], the “Count Excised Nerve” value came to 20, the “Count Nerve Extract” value turned out to be 27 and the “Count Neuron” value worked out at 7. Regarding GLWDGKGRIVEV, in assay [1], the “Count Excised Nerve” value was determined as 9, the “Count Nerve Extract” value was determined as 16 and the “Count Neuron” value was 7. The like results for EPWQSRDKVIEE were, in that order, 8, 16 and 8. Turning to VERLNWPKRMQS, in assay [1], the “Count Excised Nerve” value is listed as 27, the “Count Nerve Extract” value is 43 and the “Count Neuron” value is given as 16. On to TLNARDQLSING (nerve-binding peptide), for which, in assay [1], the “Count Excised Nerve” value is listed as 7, the “Count Nerve Extract” value is given as 13 and the “Count Neuron” value is on record as 6. HGIVFSKRPFSN: in assay [1], the “Count Excised Nerve” value amounted to 12, the “Count Nerve Extract” value was found to be 23 and the “Count Neuron” value came out at 11. Take IPGQTPRMPHSK: in assay [1], the “Count Excised Nerve” value turned out to be 8, the “Count Nerve Extract” value is recorded as 21 and the “Count Neuron” value was 13. As for VNYQTPWNKHWY, in assay [1], the “Count Excised Nerve” value was found to be 10, the “Count Nerve Extract” value was found to be 21 and the “Count Neuron” value is listed as 11. In the case of SPMANVWFNRLS, in assay [1], the “Count Excised Nerve” value stood at 7, the “Count Nerve Extract” value is 17 and the “Count Neuron” value was 10.

In the case of GMRTGDDSPKYP, in assay [1], the “Count Excised Nerve” value came to 14, the “Count Nerve Extract” value is recorded as 21 and the “Count Neuron” value is on record as 7. For YAWDTVASRNYK, in assay [1], the “Count Excised Nerve” value amounted to 14, the “Count Nerve Extract” value came to 20 and the “Count Neuron” value came out at 6.

With “GDAQILM (Laminin 421/521-binding peptide)”, the Count in assay [2] worked out at 38.

Take “QGWEFQVPARHS (Laminin 421/521-binding peptide)”: the Count in assay [2] is 30. As to “AVYPLDLGAGMR (Laminin 421/521-binding peptide)”, in assay [2], the Count was 46.

In the case of “STNVQRA (Laminin 421/521-binding peptide)”, the Count in assay [2] worked out at 28. Turning to “SWQMRSY (Laminin 421/521-binding peptide)”, the Count in assay [2] worked out at 48. As for “CSLANPATC (Laminin 421/521-binding peptide)”, the Count in assay [2] was 52. “GDLWNVP (Laminin 421/521-binding peptide)”: the Count in assay [2] is given as 51. On to “DDLLTAPRLGVW (Laminin 421/521-binding peptide)”, for which the Count in assay [2] amounted to 54.

Regarding “GGYDLPWANWQN (Laminin 421/521-binding peptide)”, in assay [2], the Count amounted to 497. As for “CQGWPRPMC (Laminin 421/521-binding peptide)”, the Count in assay [2] is on record as 30. For “DIMKSPRSNLRS (Laminin 421/521-binding peptide)”, the Count in assay [2] was 37. Turning to “VYRNGGGLPLTA (Laminin 421/521-binding peptide)”, in assay [2], the Count is recorded as 34. On to “WTKHNTPAHHLS (Laminin 421/521-binding peptide)”, for which, in assay [2], the Count worked out at 89. In the case of “CTSKLARHC (Laminin 421/521-binding peptide)”, in assay [2], the Count is given as 45. Consider “CSVWNSGNC (Laminin 421/521-binding peptide)”, for which, in assay [2], the Count came to 43. Regarding “CTPRSATLC (Laminin 421/521-binding peptide)”, the Count in assay [2] came out at 37. Still for that read-out and setting: in the case of “SLLSVVNTSSKS (Laminin 421/521-binding peptide)” it was 31. Consider “AQGVWWSEWFAP (Laminin 421/521-binding peptide)”, for which the Count in assay [2] was determined as 42.

“DRMYSTVPAEGL (Laminin 421/521-binding peptide)”: the Count in assay [2] is reported as 27. Take “ALKIGPETTIYM (Laminin 421/521-binding peptide)”: the Count in assay [2] was found to be 35. For “SGWEGKTHQGVR (Laminin 421/521-binding peptide)”, in assay [2], the Count is 69. Consider “SVLSTGTANQRH (Laminin 421/521-binding peptide)”, for which the Count in assay [2] came to 28. Still for that read-out and setting: in the case of “WPMMQTR (Laminin 421/521-binding peptide)” it was 29; in that of “CSKHNHSRC (Laminin 421/521-binding peptide)”, 295; in that of “CKWTQLWGC (Laminin 421/521-binding peptide)”, 40. Take “LQSNAADHHQGM (Laminin 421/521-binding peptide)”: the Count in assay [2] is on record as 75.

“AWNGNRS (Laminin 421/521-binding peptide)”: the Count in assay [2] was determined as 47. Turning to “CKSPAIKGC (Laminin 421/521-binding peptide)”, the Count in assay [2] came out at 29.

With “SPDRTNWGWQTN (Laminin 421/521-binding peptide)”, the Count in assay [2] was 29. Consider “QGWKDRLPIWRY (Laminin 421/521-binding peptide)”, for which the Count in assay [2] was 29. Consider “GPMLKNLSDAVT (Laminin 421/521-binding peptide)”, for which the Count in assay [2] was found to be 31.

Regarding “WSPANGWRHQTI (Laminin 421/521-binding peptide)”, the Count in assay [2] worked out at 36. For the substance “CTWKHRDNC (Laminin 421/521-binding peptide)”, the Count in assay [2] was 30.

As for “QALRTNYSPLNS (Laminin 421/521-binding peptide)”, the Count in assay [2] worked out at 32. On to “VPQIRIK (Laminin 421/521-binding peptide)”, for which the Count in assay [2] amounted to 47. “WAYTDYM (Laminin 421/521-binding peptide)”: the Count in assay [2] was 35. Still for that read-out and setting: in the case of “MTNSGAK (Laminin 421/521-binding peptide)” it was 35; in that of “TSAVSLR (Laminin 421/521-binding peptide)”, 27. Consider “WEEHRVEILPDV (Laminin 421/521-binding peptide)”, for which the Count in assay [2] is on record as 38.
